Experimental data: the supplement of paper PMC10307832

What was measured:
Assay in all cases: relative viability (nuclei count vs DMSO), 5 days (fraction); higher = more cells survive
Vemurafenib + Vorinostat = compound: CCCS(=O)(=O)Nc1ccc(F)c(C(=O)c2c[nH]c3ncc(-c4ccc(Cl)cc4)cc23)c1F [Vemurafenib] + O=C(CCCCCCC(=O)Nc1ccccc1)NO [Vorinostat] (partner 1 µM)
Summary of the method: (§1)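 The day after seeding in 1536-well plates, lung cancer cell lines were treated by pin tool with a single drug, or with a fixed anchor-drug dose together with five library-drug doses (not always all listed) in √10 steps. After 5 days, a combined fix-and-stain solution (final 0.05% Triton X-100, 1% formaldehyde, 1 ug/ml Hoechst) was added. Nuclei counted on 4× images gave relative viability as treated counts over vehicle counts, reported as the median of duplicate plates.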

OSI-027 + Pictilisib = compound: COc1cccc2cc(-c3nc([C@H]4CC[C@H](C(=O)O)CC4)n4ncnc(N)c34)[nH]c12 [OSI-027] + CS(=O)(=O)N1CCN(Cc2cc3nc(-c4cccc5[nH]ncc45)nc(N4CCOCC4)c3s2)CC1 [Pictilisib] (partner 1 µM)
Summary of the method: as §1

Alpelisib + OSI-027 = compound: Cc1nc(NC(=O)N2CCC[C@H]2C(N)=O)sc1-c1ccnc(C(C)(C)C(F)(F)F)c1 [Alpelisib] + COc1cccc2cc(-c3nc([C@H]4CC[C@H](C(=O)O)CC4)n4ncnc(N)c34)[nH]c12 [OSI-027] (partner 0.5 µM)
Summary of the method: as §1

Alpelisib + Pemetrexed = compound: Cc1nc(NC(=O)N2CCC[C@H]2C(N)=O)sc1-c1ccnc(C(C)(C)C(F)(F)F)c1 [Alpelisib] + Nc1nc2[nH]cc(CCc3ccc(C(=O)N[C@@H](CCC(=O)O)C(=O)O)cc3)c2c(=O)[nH]1 [Pemetrexed] (partner 0.2 µM)
Summary of the method: as §1

NCI-H441
relative viability (Vemurafenib + Vorinostat; first compound 0.03162 µM): 0.875 | relative viability (Vemurafenib + Vorinostat; first compound 0.1 µM): 0.663 | relative viability (Vemurafenib + Vorinostat; first compound 0.3162 µM): 0.652 | relative viability (Vemurafenib + Vorinostat; first compound 1 µM): 0.642 | relative viability (OSI-027 + Pictilisib; first compound 0.01 µM): 0.459 | relative viability (OSI-027 + Pictilisib; first compound 0.03162 µM): 0.312 | relative viability (OSI-027 + Pictilisib; first compound 0.1 µM): 0.491 | relative viability (OSI-027 + Pictilisib; first compound 0.3162 µM): 0.312 | relative viability (OSI-027 + Pictilisib; first compound 1 µM): 0.257 | relative viability (Alpelisib + OSI-027; first compound 0.04 µM): 0.656 | relative viability (Alpelisib + OSI-027; first compound 0.1265 µM): 0.64 | relative viability (Alpelisib + OSI-027; first compound 0.4 µM): 0.643 | relative viability (Alpelisib + OSI-027; first compound 1.265 µM): 0.296 | relative viability (Alpelisib + OSI-027; first compound 4 µM): 0.305 | relative viability (Alpelisib + Pemetrexed; first compound 0.04 µM): 0.273 | relative viability (Alpelisib + Pemetrexed; first compound 0.1265 µM): 0.269 | relative viability (Alpelisib + Pemetrexed; first compound 0.4 µM): 0.28 | relative viability (Alpelisib + Pemetrexed; first compound 1.265 µM): 0.264 | relative viability (Alpelisib + Pemetrexed; first compound 4 µM): 0.272

NCI-H1793
relative viability (Vemurafenib + Vorinostat; first compound 0.03162 µM): 0.652 | relative viability (Vemurafenib + Vorinostat; first compound 0.1 µM): 0.426 | relative viability (Vemurafenib + Vorinostat; first compound 0.3162 µM): 0.78 | relative viability (Vemurafenib + Vorinostat; first compound 1 µM): 0.702 | relative viability (OSI-027 + Pictilisib; first compound 0.01 µM): 0.421 | relative viability (OSI-027 + Pictilisib; first compound 0.03162 µM): 0.329 | relative viability (OSI-027 + Pictilisib; first compound 0.1 µM): 0.276 | relative viability (OSI-027 + Pictilisib; first compound 0.3162 µM): 0.222 | relative viability (OSI-027 + Pictilisib; first compound 1 µM): 0.179 | relative viability (Alpelisib + OSI-027; first compound 0.04 µM): 0.284 | relative viability (Alpelisib + OSI-027; first compound 0.1265 µM): 0.24 | relative viability (Alpelisib + OSI-027; first compound 0.4 µM): 0.228 | relative viability (Alpelisib + OSI-027; first compound 1.265 µM): 0.195 | relative viability (Alpelisib + OSI-027; first compound 4 µM): 0.161 | relative viability (Alpelisib + Pemetrexed; first compound 0.04 µM): 0.879 | relative viability (Alpelisib + Pemetrexed; first compound 0.1265 µM): 0.855 | relative viability (Alpelisib + Pemetrexed; first compound 0.4 µM): 0.977 | relative viability (Alpelisib + Pemetrexed; first compound 1.265 µM): 0.614 | relative viability (Alpelisib + Pemetrexed; first compound 4 µM): 0.596

201T
relative viability (Vemurafenib + Vorinostat; first compound 0.03162 µM): 0.944 | relative viability (Vemurafenib + Vorinostat; first compound 0.1 µM): 0.845 | relative viability (Vemurafenib + Vorinostat; first compound 0.3162 µM): 0.944 | relative viability (Vemurafenib + Vorinostat; first compound 1 µM): 0.986 | relative viability (OSI-027 + Pictilisib; first compound 0.01 µM): 0.688 | relative viability (OSI-027 + Pictilisib; first compound 0.03162 µM): 0.683 | relative viability (OSI-027 + Pictilisib; first compound 0.1 µM): 0.667 | relative viability (OSI-027 + Pictilisib; first compound 0.3162 µM): 0.553 | relative viability (OSI-027 + Pictilisib; first compound 1 µM): 0.541 | relative viability (Alpelisib + OSI-027; first compound 0.04 µM): 0.811 | relative viability (Alpelisib + OSI-027; first compound 0.1265 µM): 0.566 | relative viability (Alpelisib + OSI-027; first compound 0.4 µM): 0.661 | relative viability (Alpelisib + OSI-027; first compound 1.265 µM): 0.471 | relative viability (Alpelisib + OSI-027; first compound 4 µM): 0.402 | relative viability (Alpelisib + Pemetrexed; first compound 0.04 µM): 0.328 | relative viability (Alpelisib + Pemetrexed; first compound 0.1265 µM): 0.325 | relative viability (Alpelisib + Pemetrexed; first compound 0.4 µM): 0.361 | relative viability (Alpelisib + Pemetrexed; first compound 1.265 µM): 0.305 | relative viability (Alpelisib + Pemetrexed; first compound 4 µM): 0.269

NCI-H460
relative viability (Vemurafenib + Vorinostat; first compound 0.03162 µM): 0.661 | relative viability (Vemurafenib + Vorinostat; first compound 0.1 µM): 0.729 | relative viability (Vemurafenib + Vorinostat; first compound 0.3162 µM): 0.665 | relative viability (Vemurafenib + Vorinostat; first compound 1 µM): 0.723 | relative viability (OSI-027 + Pictilisib; first compound 0.01 µM): 0.274 | relative viability (OSI-027 + Pictilisib; first compound 0.03162 µM): 0.416 | relative viability (OSI-027 + Pictilisib; first compound 0.1 µM): 0.295 | relative viability (OSI-027 + Pictilisib; first compound 0.3162 µM): 0.314 | relative viability (OSI-027 + Pictilisib; first compound 1 µM): 0.211 | relative viability (Alpelisib + OSI-027; first compound 0.04 µM): 0.545 | relative viability (Alpelisib + OSI-027; first compound 0.1265 µM): 0.623 | relative viability (Alpelisib + OSI-027; first compound 0.4 µM): 0.534 | relative viability (Alpelisib + OSI-027; first compound 1.265 µM): 0.242 | relative viability (Alpelisib + OSI-027; first compound 4 µM): 0.137 | relative viability (Alpelisib + Pemetrexed; first compound 0.04 µM): 0.0625 | relative viability (Alpelisib + Pemetrexed; first compound 0.1265 µM): 0.0624 | relative viability (Alpelisib + Pemetrexed; first compound 0.4 µM): 0.0552 | relative viability (Alpelisib + Pemetrexed; first compound 1.265 µM): 0.0558 | relative viability (Alpelisib + Pemetrexed; first compound 4 µM): 0.033

NCI-H1666
relative viability (Vemurafenib + Vorinostat; first compound 0.03162 µM): 0.972 | relative viability (Vemurafenib + Vorinostat; first compound 0.1 µM): 1.05 | relative viability (Vemurafenib + Vorinostat; first compound 0.3162 µM): 1.08 | relative viability (Vemurafenib + Vorinostat; first compound 1 µM): 1.01 | relative viability (OSI-027 + Pictilisib; first compound 0.01 µM): 0.365 | relative viability (OSI-027 + Pictilisib; first compound 0.03162 µM): 0.369 | relative viability (OSI-027 + Pictilisib; first compound 0.1 µM): 0.537 | relative viability (OSI-027 + Pictilisib; first compound 0.3162 µM): 0.27 | relative viability (OSI-027 + Pictilisib; first compound 1 µM): 0.257 | relative viability (Alpelisib + OSI-027; first compound 0.04 µM): 0.837 | relative viability (Alpelisib + OSI-027; first compound 0.1265 µM): 0.826 | relative viability (Alpelisib + OSI-027; first compound 0.4 µM): 0.807 | relative viability (Alpelisib + OSI-027; first compound 1.265 µM): 0.609 | relative viability (Alpelisib + OSI-027; first compound 4 µM): 0.536 | relative viability (Alpelisib + Pemetrexed; first compound 0.04 µM): 0.882 | relative viability (Alpelisib + Pemetrexed; first compound 0.1265 µM): 0.893 | relative viability (Alpelisib + Pemetrexed; first compound 0.4 µM): 0.979 | relative viability (Alpelisib + Pemetrexed; first compound 1.265 µM): 0.833 | relative viability (Alpelisib + Pemetrexed; first compound 4 µM): 0.514

HOP-62
relative viability (Vemurafenib + Vorinostat; first compound 0.03162 µM): 0.515 | relative viability (Vemurafenib + Vorinostat; first compound 0.1 µM): 0.593 | relative viability (Vemurafenib + Vorinostat; first compound 0.3162 µM): 0.583 | relative viability (Vemurafenib + Vorinostat; first compound 1 µM): 0.484 | relative viability (OSI-027 + Pictilisib; first compound 0.01 µM): 0.565 | relative viability (OSI-027 + Pictilisib; first compound 0.03162 µM): 0.76 | relative viability (OSI-027 + Pictilisib; first compound 0.1 µM): 0.467 | relative viability (OSI-027 + Pictilisib; first compound 0.3162 µM): 0.674 | relative viability (OSI-027 + Pictilisib; first compound 1 µM): 0.254 | relative viability (Alpelisib + OSI-027; first compound 0.04 µM): 0.822 | relative viability (Alpelisib + OSI-027; first compound 0.1265 µM): 0.793 | relative viability (Alpelisib + OSI-027; first compound 0.4 µM): 0.949 | relative viability (Alpelisib + OSI-027; first compound 1.265 µM): 0.626 | relative viability (Alpelisib + OSI-027; first compound 4 µM): 0.589 | relative viability (Alpelisib + Pemetrexed; first compound 0.04 µM): 0.342 | relative viability (Alpelisib + Pemetrexed; first compound 0.1265 µM): 0.28 | relative viability (Alpelisib + Pemetrexed; first compound 0.4 µM): 0.364 | relative viability (Alpelisib + Pemetrexed; first compound 1.265 µM): 0.26 | relative viability (Alpelisib + Pemetrexed; first compound 4 µM): 0.297

SW 1573
relative viability (Vemurafenib + Vorinostat; first compound 0.03162 µM): 0.655 | relative viability (Vemurafenib + Vorinostat; first compound 0.1 µM): 0.767 | relative viability (Vemurafenib + Vorinostat; first compound 0.3162 µM): 0.473 | relative viability (Vemurafenib + Vorinostat; first compound 1 µM): 0.537 | relative viability (OSI-027 + Pictilisib; first compound 0.01 µM): 0.466 | relative viability (OSI-027 + Pictilisib; first compound 0.03162 µM): 0.436 | relative viability (OSI-027 + Pictilisib; first compound 0.1 µM): 0.458 | relative viability (OSI-027 + Pictilisib; first compound 0.3162 µM): 0.357 | relative viability (OSI-027 + Pictilisib; first compound 1 µM): 0.205 | relative viability (Alpelisib + OSI-027; first compound 0.04 µM): 0.661 | relative viability (Alpelisib + OSI-027; first compound 0.1265 µM): 0.438 | relative viability (Alpelisib + OSI-027; first compound 0.4 µM): 0.571 | relative viability (Alpelisib + OSI-027; first compound 1.265 µM): 0.404 | relative viability (Alpelisib + OSI-027; first compound 4 µM): 0.337 | relative viability (Alpelisib + Pemetrexed; first compound 0.04 µM): 0.837 | relative viability (Alpelisib + Pemetrexed; first compound 0.1265 µM): 0.871 | relative viability (Alpelisib + Pemetrexed; first compound 0.4 µM): 0.812 | relative viability (Alpelisib + Pemetrexed; first compound 1.265 µM): 0.741 | relative viability (Alpelisib + Pemetrexed; first compound 4 µM): 0.711

NCI-H2085
relative viability (Vemurafenib + Vorinostat; first compound 0.03162 µM): 0.703 | relative viability (Vemurafenib + Vorinostat; first compound 0.1 µM): 0.736 | relative viability (Vemurafenib + Vorinostat; first compound 0.3162 µM): 0.618 | relative viability (Vemurafenib + Vorinostat; first compound 1 µM): 0.968 | relative viability (OSI-027 + Pictilisib; first compound 0.01 µM): 0.436 | relative viability (OSI-027 + Pictilisib; first compound 0.03162 µM): 0.367 | relative viability (OSI-027 + Pictilisib; first compound 0.1 µM): 0.483 | relative viability (OSI-027 + Pictilisib; first compound 0.3162 µM): 0.33 | relative viability (OSI-027 + Pictilisib; first compound 1 µM): 0.323 | relative viability (Alpelisib + OSI-027; first compound 0.04 µM): 0.826 | relative viability (Alpelisib + OSI-027; first compound 0.1265 µM): 0.658 | relative viability (Alpelisib + OSI-027; first compound 0.4 µM): 0.709 | relative viability (Alpelisib + OSI-027; first compound 1.265 µM): 0.585 | relative viability (Alpelisib + OSI-027; first compound 4 µM): 0.574 | relative viability (Alpelisib + Pemetrexed; first compound 0.04 µM): 0.848 | relative viability (Alpelisib + Pemetrexed; first compound 0.1265 µM): 0.847 | relative viability (Alpelisib + Pemetrexed; first compound 0.4 µM): 0.86 | relative viability (Alpelisib + Pemetrexed; first compound 1.265 µM): 0.865 | relative viability (Alpelisib + Pemetrexed; first compound 4 µM): 0.803
